Data as given in article PMC8448719 (Archives of Toxicology, 2021).
Read-outs that look alike come from different tables or passages of the source.

How the values were obtained:
[1] = Metabolism of BaP in incubations with rat liver microsomes; type: in vitro ADME, rat
Experimental: (§1) All in vitro Vmax values were scaled to microsomal or S9 protein content of rat liver using the following scaling factors: 45 mg microsomal protein per gram liver tissue and 125 mg S9 protein per gram liver tissue (Houston and Galetin [2008]). The scaled Vmax values were subsequently converted to Vmax in nmol/min/liver using the liver weight of 9.1 g, calculated from the body weight and fractional liver weight presented in Table 1. The Km in vitro was assumed equal to the Km in vivo.
(§2) The incubation mixtures consisted of (final concentrations) 0.1 mM potassium phosphate (pH 7.4), 5 mM MgCl2, 0.5 mg/ml rat liver microsomes or 2 mg/ml rat lung microsomes, and 1 mM NADPH in conical glass vials. […] The mixtures were incubated in a shaking water bath at 37 °C for 30 min. 20 µl ice-cold 10% (v/v) perchloric acid (HClO4) was added to terminate the reactions and the mixtures were put on ice for at least 15 min. Di-isopropyl ether (DIPE) was used to extract BaP and its metabolites from the incubation mixture. To this end, 1 ml DIPE was added to each incubation mixture, the tubes vortexed for 20 s and the upper layer was collected. Extraction was performed three times. Remaining DIPE was removed by evaporation under a stream of N2. Subsequently, extracts were re-dissolved in 100 µl methanol and transferred to UPLC vials for analysis.
The UPLC was equipped with a Photodiode Array (PDA) detector, recording wavelengths between 190 and 400 nm and a Phenomenex C18 column (Phenomenex, Torrance, California, United States). The column temperature was kept at 40 °C and the auto-sampler at 4 °C during analysis. The mobile phase consisted of Nanopure water containing 0.1% (v/v) trifluoroacetic acid (TFA) (A) and acetonitrile containing 0.1% (v/v) TFA (B) at a flow rate of 0.3 ml/min. The total run time was 23 min and 30 s, starting with 10% B for 30 s, increasing to 100% B in 15 min, maintaining this condition for 3 min before returning to the initial conditions of 10% B in 30 s. 10 µl of sample was injected per run. Under these conditions the metabolite 3-OHBaP, detected at 258 nm, eluted at 10.16 min. For the glucuronidated and sulfonated metabolite of 3-OHBaP, retention time and detection wavelength were 7.5 min, 303.3 nm and 7.4 min, 301 nm, respectively. The amounts of 3-OHBaP in the microsomal incubation sample and of glucuronidated and sulfated 3-OHBaP in the S9 incubation samples were quantified by integrating peak areas at their respective wavelengths using a calibration curve prepared with commercially available 3-OHBaP. To obtain the Vmax and Km the in vitro data for the substrate concentration-dependent rate of metabolite formation were fitted to the Michaelis–Menten equation using Graphpad Prism 9.0.1 for Windows (GraphPad Software, San Diego, California, USA).

[2] = tested on: Caco-2 cells; conditions: cited from earlier work
[3] = rat, in vivo; cited from earlier work
[4] = type: in vitro ADME; conditions: rat, 30 min, pH 7.4
Experimental: as §2
The UPLC was equipped with a Photodiode Array (PDA) detector, recording wavelengths between 190 and 400 nm and a Phenomenex C18 column (Phenomenex, Torrance, California, United States). […] Under these conditions the metabolite 3-OHBaP, detected at 258 nm, eluted at 10.16 min. […] The amounts of 3-OHBaP in the microsomal incubation sample and of glucuronidated and sulfated 3-OHBaP in the S9 incubation samples were quantified by integrating peak areas at their respective wavelengths using a calibration curve prepared with commercially available 3-OHBaP. […]

[5] = tested on: F-344 rat; assay: In vivo reproductive toxicity of BaP (foetal survival), nasal inhalation; conditions: inhalation expressed as oral dose equivalent, data of Archibong et al. (2002)
Experimental: Foetal survival, calculated as the fraction of live foetuses relative to the number of implantation sites reported in these studies, was taken as measure for in vivo reproductive toxicity. […] These oral dose equivalents in mg/kg bw were used for the comparison with model predicted dose–response data.
ED50 values were calculated for the predicted and reported dose–response data, using the non-linear regression with three parameters in Graphpad Prism version 9.0.1 for Windows (GraphPad Software, San Diego, California USA). The ED50 value was calculated for the fraction differentiated into beating cardiomyocytes for the predicted dose–response data. For the in vivo studies, foetus survival (number of live foetuses as fraction of total implantations) was used as response.

[6] = 3-OHBaP in rat blood, read-out: Cmax reported, cited from earlier work
[7] = tested on: ES-D3 cells; set-up: method as in Kamelia et al. (2020); conditions: without bioactivation; ref Kamelia et al. (2020); cited from earlier work
[8] = rat PBK model; ref Crowell et al. (2011); cited from earlier work
[9] = Glucuronidation of 3-OHBaP in incubations with rat liver S9; type: in vitro ADME
Experimental: as §1
(§3) Incubations with rat liver and lung S9 fractions were optimized to establish linearity over time and protein concentrations for the rate of glucuronidation and sulfation of 3-OHBaP. […]
Kinetics for 3-OHBaP glucuronidation, were quantified using incubations with pooled liver S9 fractions from male SD rats. […]
(§4) All incubation mixtures were pre-incubated for 1 min, after which the reaction was initiated by addition of 3-OHBaP in final concentrations ranging from 0.01 to 50 µM (glucuronidation) or 0.01–100 µM (sulfation) added from 100 times concentrated stock solutions in DMSO to reach the final volume of 200 µl (1% DMSO v/v). […] The supernatant was collected and analysed by Ultra Performance Liquid Chromatography (UPLC). […]

[10] = Sulfation of 3-OHBaP in incubations with rat liver S9; type: in vitro ADME; conditions: male, SD, pooled rat liver S9, pH 7.4
Experimental: as §1, §3
Hepatic sulfonation of 3-OHBaP was evaluated using pooled liver S9 fractions of male SD rats, in incubation mixtures with a final volume of 200 µl in conical glass vials containing (final concentrations) 0.1 mM Tris–HCl (pH 7.4), 0.1 mg/ml rat liver S9 and 0.2 mM PAPS.
as §4

[11] = PBK model prediction of 3-OHBaP blood concentrations in rat; conditions: intravenous; Marie et al. (2010)
Excerpt: The conceptual PBK model for BaP consisted of separate compartments for venous blood, arterial blood, fat tissue, liver tissue, lung tissue, rapidly and slowly perfused tissue, stomach and intestines. 3-OHBaP is highly lipophilic. To prevent 3-OHBaP from partitioning into the fat tissue in the model simulations, it was essential to include a blood protein compartment in the model to allow binding of 3-OHBaP to blood protein. The unbound fraction of 3-OHBaP in the blood compartment was represented by the fub, in vivo, calculated as described in “Translating in vitro concentration–response data into in vivo dose–response data using PBK modelling-based reverse dosimetry” section. The fraction of 3-OHBaP bound to protein in the blood protein compartment (fb, in vivo) was calculated as 1 minus the fub, in vivo. […] Clearance of 3-OHBaP was assumed to result from hepatic and pulmonary conjugation (Cohen [1990]; Cohen and Moore [1976]). […]
For oral exposure, stomach emptying and intestinal transfer of the parent compound were included. […] The Papp, in vivo was calculated using the following equation: log (Papp, in vivo) = 0.6836 × log (Papp, Caco−2) − 0.5579 (Sun et al. [2002]) and applied in the model as described before (Zhang et al. [2018]). […]

[12] = formation of the metabolite from BaP, rat liver microsomes

In the case of `O=C1C=Cc2ccc3c4c(ccc1c24)C(=O)c1ccccc1-3` [B[a]P-3,6-quinone], the Vmax [1, 12] is reported as 3.0 ± 0.5 pmol/min/mg microsomal protein.

For `O=C1C=Cc2ccc3c4c(ccc1c24)-c1ccccc1C3=O` [B[a]P-1,6-quinone], the Vmax [1, 12] was 22.2 ± 3.2 pmol/min/mg microsomal protein.

For `c1ccc2c(c1)cc1ccc3cccc4ccc2c1c34` [BaP, benzo[a]pyrene], the “Log Papp, Caco-2” value [2] is listed as -5.42, the “Papp, Caco-2” value [2] is listed as 3.8 x1E-6 cm/sec and the “Blood concentration in maternal versus foetal blood” value [3] is listed as “similar”. The “Rate of 3-OHBaP formation” value ([4]; 200 µM) was 0.81 pmol/min/mg protein, the “Formation of 3-OHBaP in lung microsomes” value [4] was “did not result in formation of detectable levels of 3-OHBaP” and the Vmax ([1]; rat, 30 min, pH 7.4) was 0.16 nmol/min/mg microsomal protein. The “Vmax scaled to the whole liver” value ([1]; rat, 30 min, pH 7.4) was 4.1 µmol/min/liver, the Km at 30 min ([1]; rat, pH 7.4, Km) was 34 µM and the “ED50 derived from reported in vivo dose-response data” value [5] was 29 mg/kg bw per day.

For `Oc1ccc2ccc3c4ccccc4cc4ccc1c2c43` [3-OHBaP, 3-hydroxybenzo[a]pyrene], the Cmax ([6]; intratracheal 10 mg/kg bw BaP, ref Moreau and Bouchard (2015)) is given as 140 nM, the Cmax ([6]; intravenous 10 mg/kg bw BaP, ref Marie et al. (2010)) is given as 720 nM and the Cmax ([6]; intravenous 10 mg/kg bw BaP, ref Moreau and Bouchard (2015)) is given as 220 nM. For the same molecule, the Cmax ([6]; oral 10 mg/kg bw BaP, ref Moreau and Bouchard (2015)) was 100 nM, the Vmax [1, 12] was 162.2 ± 47.6 pmol/min/mg microsomal protein and the “Result in the EST” value [7] was “induces developmental toxicity”. The “Tissue:blood partition coefficient, fat” value [8] was 401, the “Tissue:blood partition coefficient, liver” value [8] was 12.24 and the “Tissue:blood partition coefficient, lung” value [8] was 12.24. For the same molecule, the “Tissue:blood partition coefficient, rapidly perfused tissue” value [8] was 12.24, the “Tissue:blood partition coefficient, slowly perfused tissue” value [8] was 6.43 and the “Concentration at which substrate inhibition occurred” value ([9]; glucuronidation) was no less than 50000 nM. For the same molecule, the Km at 20 min ([9]; male, SD, pooled rat liver S9, pH 7.4, glucuronidation of 3-OHBaP) was 10 µM, the Km at 70 min [10] was 17 µM and the “Cmax reported relative to predicted Cmax (fold higher)” value [11] was 1.1 fold.
